According to ChEMBL document CHEMBL1201862, “PubChem BioAssay data set” (2004):
Activity calls are given as the source filed them.

Legend:
[1] = molecular target: T1, DNA repair protein RAD52 homolog (Homo sapiens, UniProt P43351); format: functional, biochemical
T1 sequence (P43351 whole entry): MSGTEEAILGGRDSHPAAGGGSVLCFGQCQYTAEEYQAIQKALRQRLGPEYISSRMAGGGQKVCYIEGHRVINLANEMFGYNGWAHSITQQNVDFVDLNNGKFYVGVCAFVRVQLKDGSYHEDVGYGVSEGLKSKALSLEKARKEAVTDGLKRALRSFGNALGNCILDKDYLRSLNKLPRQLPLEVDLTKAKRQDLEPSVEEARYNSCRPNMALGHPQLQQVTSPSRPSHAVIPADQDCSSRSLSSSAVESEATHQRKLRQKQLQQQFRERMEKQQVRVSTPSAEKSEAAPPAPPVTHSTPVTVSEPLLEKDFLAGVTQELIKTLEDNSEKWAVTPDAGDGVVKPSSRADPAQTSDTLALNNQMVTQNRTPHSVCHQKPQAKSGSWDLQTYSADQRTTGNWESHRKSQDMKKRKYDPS

[2] = intracellular Trypanosoma cruzi inhibitors in host cells – cell-based, plate reader, cherry-pick samples, set 3, dose response (AID 651818); format: functional;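 note: compounds incubated with infected cells for about four days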
[3] = non-specific cell cytotoxicity, dose response, cytotoxicity control for PAX8 inhibitor project, plate reader, dry powder samples (AID 743021); format: functional, cell-based
[4] = NIH:OVCAR-3 ovarian cancer cell cytotoxicity, dose response, PAX8 inhibitor project, plate reader, dry powder samples (AID 743044); format: functional, cell-based
Paired box protein Pax-8 = Paired box protein Pax-8 (Homo sapiens, UniProt Q06710); assay: inhibitors of PAX8-driven TPO luciferase reporter, dose response, RMG-I cells, cherry-pick (AID 687027); format: functional, cell-based;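 note: luciferase reporter driven by Pax8 target thyroperoxidase promoter measured by SteadyGlo luminescence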
Sequence of Paired box protein Pax-8 (Q06710 whole entry): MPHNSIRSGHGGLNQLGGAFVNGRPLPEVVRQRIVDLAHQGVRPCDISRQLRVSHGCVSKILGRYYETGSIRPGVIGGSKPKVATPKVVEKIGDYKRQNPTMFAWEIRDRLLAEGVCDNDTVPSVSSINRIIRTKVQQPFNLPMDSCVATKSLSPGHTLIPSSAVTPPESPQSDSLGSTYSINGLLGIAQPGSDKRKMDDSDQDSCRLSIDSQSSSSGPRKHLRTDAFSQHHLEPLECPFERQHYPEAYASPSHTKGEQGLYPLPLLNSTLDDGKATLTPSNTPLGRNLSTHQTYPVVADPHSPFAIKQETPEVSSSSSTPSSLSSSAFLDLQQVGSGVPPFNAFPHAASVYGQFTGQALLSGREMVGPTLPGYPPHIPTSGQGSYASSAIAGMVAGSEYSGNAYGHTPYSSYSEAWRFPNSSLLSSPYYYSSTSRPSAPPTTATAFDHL

[5] = LGR2 antagonists, dose response, cell-based, HEK293, CRE-luciferase reporter, cherry pick, set 2 (AID 743343); format: functional;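 note: transfected cells were stimulated with diluted bursicon conditioned medium after compound addition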
[6] = MC4R antagonists, dose response, counter-screen for LGR2 antagonist project, cell-based, plate reader, cherry pick (AID 743444); format: functional;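 note: transfected HEK 293 cells stimulated with alpha-MSH peptide; potency of inhibitors of the alpha-MSH evoked signal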
[7] = inhibitors of SNCA 5'UTR-driven reporter translation, confirmation, H4 neuroglioma cells, luminescence (AID 1988); format: functional, cell-based
[8] = A549 cell cytotoxicity, dose response, cytotoxicity control, plate reader, cherry-pick, antagonist series (AID 743412); format: functional, cell-based
[9] = Luminescence Cell-Based Dose Response HTS to Identify Inhibitors of 5'UTR Stem-Loop Driven Prion Protein mRNA Translation in H4 Neuroglioblastoma Cells. [Related pubchem assays: 1827 (Project Summary), 1813 (Primary HTS)]; format: functional
[10] = cytotoxicity in OVCAR8 ovarian cancer cells, dose response, PAX8 project, cell-based, plate reader, dry powder samples (AID 743197); format: functional; conditions: OVCAR-8
[11] = IOSE-T80 ovarian epithelial cell cytotoxicity, dose response, cytotoxicity control for PAX8 inhibitor project, plate reader, dry powder samples (AID 743045); format: functional, cell-based
[12] = IGROV1 ovarian cancer cell cytotoxicity, dose response, PAX8 inhibitor project, plate reader, dry powder samples (AID 743043); format: functional, cell-based; conditions: IGROV-1
Estrogen receptor beta [13] = molecular target: T2, Estrogen receptor beta (Homo sapiens, UniProt Q92731);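 note: recombinant ER-beta bound to coactivator SRC1 peptide in presence of estradiol agonist; inhibitors block coactivator peptide binding and lower the FRET signal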
T2 sequence (Q92731 whole entry): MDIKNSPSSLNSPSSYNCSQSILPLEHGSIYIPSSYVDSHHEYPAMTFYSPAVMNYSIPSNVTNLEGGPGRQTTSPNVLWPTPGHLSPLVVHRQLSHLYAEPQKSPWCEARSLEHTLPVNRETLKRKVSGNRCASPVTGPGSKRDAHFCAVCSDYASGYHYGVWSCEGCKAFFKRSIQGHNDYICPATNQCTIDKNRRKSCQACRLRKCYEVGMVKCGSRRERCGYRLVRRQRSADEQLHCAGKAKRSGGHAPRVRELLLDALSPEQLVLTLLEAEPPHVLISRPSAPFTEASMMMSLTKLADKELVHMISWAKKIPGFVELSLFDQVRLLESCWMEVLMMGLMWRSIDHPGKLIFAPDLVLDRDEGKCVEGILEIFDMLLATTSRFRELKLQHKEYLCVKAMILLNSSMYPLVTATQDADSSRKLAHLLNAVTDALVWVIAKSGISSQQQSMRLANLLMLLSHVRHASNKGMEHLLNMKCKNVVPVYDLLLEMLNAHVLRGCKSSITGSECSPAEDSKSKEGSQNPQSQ

Estrogen receptor beta [14] = molecular target: T2, Estrogen receptor beta; assay: ERβ–SRC-3 coactivator interaction inhibitors, confirmation, orthogonal assay, biochemical, ELISA, streptavidin-HRP readout (AID 1060)
[15] = P. falciparum Dd2 growth inhibitors, dose response, SYBR Green, dry powder samples, set 9 (AID 1159568); format: functional, cell-based
[16] = HeLa 2N DNA content increase, dose response, cell-based, IC50 (AID 1117349); format: functional
[17] = HeLa 4N DNA content increase, dose response, cell-based, IC50 (AID 1117351); format: functional
Caspase-3 = molecular target: T3, Caspase-3 (Homo sapiens, UniProt P42574); format: functional;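 note: Dose-response selectivity test against caspase-3 for candidate inhibitors of sentrin-specific proteases (SENPs)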
T3 sequence (P42574 whole entry): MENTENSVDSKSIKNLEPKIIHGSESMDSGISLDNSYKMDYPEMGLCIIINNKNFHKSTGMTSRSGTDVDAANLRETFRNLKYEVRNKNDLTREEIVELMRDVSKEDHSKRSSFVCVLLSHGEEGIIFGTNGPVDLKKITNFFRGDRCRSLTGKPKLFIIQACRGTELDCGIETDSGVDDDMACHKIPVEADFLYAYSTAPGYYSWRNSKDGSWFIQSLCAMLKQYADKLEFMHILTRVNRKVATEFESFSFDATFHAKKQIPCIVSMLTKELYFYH

[18] = molecular target: T4, Sentrin-specific protease 7 (Homo sapiens, UniProt Q9BQF6); format: functional;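 note: Luminescence-based dose-response confirmation of ultra-high-throughput screening hits, measuring inhibition of SENP7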
T4 sequence (Q9BQF6 whole entry): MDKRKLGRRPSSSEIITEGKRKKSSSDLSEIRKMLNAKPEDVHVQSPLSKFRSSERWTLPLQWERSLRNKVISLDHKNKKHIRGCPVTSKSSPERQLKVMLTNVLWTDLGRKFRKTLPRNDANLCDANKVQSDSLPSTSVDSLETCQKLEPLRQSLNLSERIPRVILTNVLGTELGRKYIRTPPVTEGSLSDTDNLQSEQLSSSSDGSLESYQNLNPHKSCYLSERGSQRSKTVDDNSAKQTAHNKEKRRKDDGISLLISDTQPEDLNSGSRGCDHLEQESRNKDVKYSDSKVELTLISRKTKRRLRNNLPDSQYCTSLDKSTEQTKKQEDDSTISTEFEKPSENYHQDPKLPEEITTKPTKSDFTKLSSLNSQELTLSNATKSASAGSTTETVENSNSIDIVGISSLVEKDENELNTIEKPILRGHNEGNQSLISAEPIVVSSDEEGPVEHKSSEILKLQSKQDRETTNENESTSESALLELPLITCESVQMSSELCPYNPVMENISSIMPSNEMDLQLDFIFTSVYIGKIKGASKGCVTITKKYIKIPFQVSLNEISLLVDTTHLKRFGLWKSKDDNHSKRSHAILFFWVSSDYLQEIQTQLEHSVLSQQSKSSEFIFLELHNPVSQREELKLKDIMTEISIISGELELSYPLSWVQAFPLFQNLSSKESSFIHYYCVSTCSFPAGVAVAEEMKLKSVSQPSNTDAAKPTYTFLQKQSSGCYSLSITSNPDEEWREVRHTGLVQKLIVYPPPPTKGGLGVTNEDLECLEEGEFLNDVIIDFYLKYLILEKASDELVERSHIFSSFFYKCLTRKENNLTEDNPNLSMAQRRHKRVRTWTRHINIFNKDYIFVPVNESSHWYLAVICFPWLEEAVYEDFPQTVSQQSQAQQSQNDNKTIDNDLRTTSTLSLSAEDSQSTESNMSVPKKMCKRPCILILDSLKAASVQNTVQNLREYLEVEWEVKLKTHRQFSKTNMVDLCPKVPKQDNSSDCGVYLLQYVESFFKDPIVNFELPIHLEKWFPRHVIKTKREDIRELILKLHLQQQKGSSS

[19] = HepG2 cell cytotoxicity, dose response, cytotoxicity control, plate reader, cherry-pick, antagonist series (AID 743416); format: functional, cell-based
[20] = molecular target: T5, Sentrin-specific protease 8 (Homo sapiens, UniProt Q96LD8); format: functional;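 note: luminescence read-out of SENP8 inhibition, dose-response confirmation following an ultra-high-throughput screen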
T5 sequence (Q96LD8 whole entry): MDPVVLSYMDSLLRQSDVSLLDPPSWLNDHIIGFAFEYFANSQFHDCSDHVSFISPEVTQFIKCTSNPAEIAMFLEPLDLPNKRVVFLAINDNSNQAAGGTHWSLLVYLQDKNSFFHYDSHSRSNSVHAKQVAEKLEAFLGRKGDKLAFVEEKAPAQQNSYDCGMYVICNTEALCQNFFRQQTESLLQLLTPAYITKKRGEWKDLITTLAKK

[21] = molecular target: T6, Sentrin-specific protease 6 (Homo sapiens, UniProt Q9GZR1); format: functional;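 note: Luminescence-based dose-response confirmatory assay of SENP6 inhibition, following up an ultra-high-throughput screen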
T6 sequence (Q9GZR1 whole entry): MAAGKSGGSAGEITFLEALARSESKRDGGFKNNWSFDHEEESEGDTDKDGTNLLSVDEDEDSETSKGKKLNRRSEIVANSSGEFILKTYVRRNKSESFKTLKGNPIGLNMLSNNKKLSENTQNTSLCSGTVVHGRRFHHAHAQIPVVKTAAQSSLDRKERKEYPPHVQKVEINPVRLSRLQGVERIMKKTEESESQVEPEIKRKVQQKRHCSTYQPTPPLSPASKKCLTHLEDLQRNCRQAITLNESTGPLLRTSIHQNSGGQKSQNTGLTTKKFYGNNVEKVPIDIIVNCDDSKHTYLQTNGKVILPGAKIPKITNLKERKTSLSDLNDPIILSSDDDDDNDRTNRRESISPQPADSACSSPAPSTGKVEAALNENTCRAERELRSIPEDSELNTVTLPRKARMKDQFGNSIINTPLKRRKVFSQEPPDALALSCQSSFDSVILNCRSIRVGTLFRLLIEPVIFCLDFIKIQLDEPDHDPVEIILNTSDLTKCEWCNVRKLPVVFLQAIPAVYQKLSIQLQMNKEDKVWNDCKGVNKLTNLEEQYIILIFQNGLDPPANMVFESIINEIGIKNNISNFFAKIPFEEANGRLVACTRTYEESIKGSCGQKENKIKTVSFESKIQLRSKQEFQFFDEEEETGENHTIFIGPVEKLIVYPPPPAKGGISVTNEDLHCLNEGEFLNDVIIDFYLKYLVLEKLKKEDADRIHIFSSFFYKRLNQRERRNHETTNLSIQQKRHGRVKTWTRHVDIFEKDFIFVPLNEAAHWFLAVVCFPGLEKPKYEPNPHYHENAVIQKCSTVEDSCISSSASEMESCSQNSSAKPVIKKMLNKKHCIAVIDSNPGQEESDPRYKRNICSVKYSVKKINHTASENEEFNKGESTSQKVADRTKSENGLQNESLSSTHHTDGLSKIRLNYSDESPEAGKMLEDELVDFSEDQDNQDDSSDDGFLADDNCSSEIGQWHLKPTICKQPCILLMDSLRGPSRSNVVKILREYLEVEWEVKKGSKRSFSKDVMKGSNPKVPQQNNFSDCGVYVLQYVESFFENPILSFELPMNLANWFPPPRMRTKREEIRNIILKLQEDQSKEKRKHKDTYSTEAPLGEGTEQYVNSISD

[22] = inhibitors of intracellular T. cruzi replication, confirmation, NIH3T3 host cells, beta-gal luminescence (AID 2044); format: functional, cell-based;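 note: intracellular parasites grown in NIH/3T3 mouse fibroblasts as host cells; luminescent beta-galactosidase reporter signal from transgenic T. cruzi replicating inside host cells; inhibitors lower the luminescence signal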
[23] = growth suppression of PTEN-null colon cells, dose response, cell-based, HCT116 PTEN knockout (AID 1047); format: functional;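 note: HCT116 colon tumor cells with PTEN knocked out; cells exposed to compound for 60 hours before readout; potency for loss of cell viability measured by luminescence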
[24] = growth suppression of beta-catenin-knockout colon cells, dose response, cell-based, HCT116, human colon tumor (AID 1045); format: functional;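 note: HCT116 colon tumor cells with beta catenin knocked out; cells exposed to compound for 60 hours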
[25] = cytotoxicity toward NIH3T3 fibroblasts, dose response, counter-screen, cell-based, ATP luminescence, mouse fibroblasts (AID 2010); format: functional;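 note: cells exposed to compound for about 90 hours before reading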

CCN(CC)CCCN(C(=O)c1ccc(OC)cc1)c1nc(-c2ccc(OC)cc2)cs1
AC50 [1]: 18.1 µM (active)

COc1ccc(S(=O)(=O)N(C)C[C@H]2Oc3c(NC(=O)Nc4ccc(C(F)(F)F)cc4)cccc3C(=O)N([C@@H](C)CO)C[C@H]2C)cc1
AC50 [2]: 7.67 µM (active)
AC50 [3]: 51 µM (active)
AC50 [4]: 66.2 µM (active)
AC50 (Paired box protein Pax-8): 7.04 µM (active)

Cc1cnc(NC(=O)COc2ccccc2Cl)s1
AC50 [5]: 2.33 µM (active)
AC50 [6]: 2.3 µM (active)
EC50 [7]: 1.25 µM (active)
AC50 [8]: > 52 µM (inactive)
EC50 [9]: 0.491 µM (active)

Cc1ccc(S(=O)(=O)N(C)C[C@H]2Oc3cc(C#Cc4ccncc4)ccc3S(=O)(=O)N([C@@H](C)CO)C[C@H]2C)cc1
AC50 [10]: 30.8 µM (active)
AC50 [4]: 4.57 µM (active)
AC50 [11]: 51.6 µM (active)
AC50 (Paired box protein Pax-8): 3.15 µM (active)
AC50 [12]: 45.3 µM (active)

O=S(=O)(NCC(O)COCc1ccco1)c1cccs1 (configuration not stated)
IC50 (Estrogen receptor beta [13]): 20.6 µM (active)
IC50 (Estrogen receptor beta [14]): 14 µM (not active)

O=C(Nc1ccc(F)cc1)N1C[C@@H]2N[C@H](C1)[C@@H]2c1ccc(/C=C/c2ccccc2)cc1
AC50 [10]: 26 µM (active)
AC50 [3]: 23.6 µM (active)
AC50 (Paired box protein Pax-8): 10.7 µM (active)

O=S(=O)(c1cccs1)N1CCCCN2[C@H](CO)[C@H](c3ccc(/C=C/c4ccccc4)cc3)[C@H]2C1
AC50 [15]: 3.42 µM (active)

CO[C@@H]1[C@@H](OC)[C@H](C)[C@@](O)(CC(=O)O)O[C@H]1[C@H](C)[C@H]1O[C@@]2(CC[C@@](C)([C@H]3CC[C@@](C)([C@@H]4O[C@@H]([C@H]5O[C@](C)(O)[C@H](C)C[C@@H]5C)C[C@@H]4OC4C[C@H](OC)[C@@H](OC)[C@H](C)O4)O3)O2)C[C@H](O)[C@H]1C (some centres not stated)
IC50 [16]: > 10 µM (inactive)
IC50 [17]: > 10 µM (inactive)

COc1ccc(C(=O)Nc2ccc3ccccc3n2)c(OC)c1OC
AC50 [5]: 7.06 µM (active)
AC50 [6]: 6.75 µM (active)
IC50 (Caspase-3): 6.1 µM (active)
IC50 [18]: 2.37 µM (active)
AC50 [19]: > 52 µM (inactive)
IC50 [20]: > 100 µM (inactive)
AC50 [8]: > 52 µM (inactive)
IC50 [21]: 2.95 µM (active)

C[C@@H]1CN([C@H](C)CO)C(=O)c2cccc(NC(=O)c3ccc(-c4nccs4)cc3)c2O[C@H]1CN(C)C(=O)Nc1ccc(C(F)(F)F)cc1
AC50 [15]: 7.49 µM (active)

CC(=O)Nc1ccn(C2COC(COC(=O)c3ccccc3)O2)c(=O)n1 (configuration not stated)
IC50 [16]: > 10 µM (inactive)
IC50 [17]: > 10 µM (inactive)

COc1ccc(-c2ccccc2[C@@H]2[C@@H](C#N)N(C(=O)NC3CCCCC3)[C@H]2CO)cc1
AC50 [15]: 7.06 µM (active)

C[C@@H]1CCCCO[C@@H](CN(C)S(=O)(=O)c2ccc(F)cc2)[C@@H](C)CN([C@@H](C)CO)C(=O)c2cc(N(C)C)ccc2O1
AC50 [15]: 2.56 µM (active)

CN(C)CCNC(=O)c1cccc2nc3c(ccc4ccccc43)nc12
AC50 [1]: 0.501 µM (active)

CN(C)CCCn1c(SCC(=O)N2c3ccccc3Sc3ccccc32)nc2ccccc2c1=O
EC50 [22]: 0.268 µM (active)
EC50 [23]: 5.64 µM (active)
AC50 [1]: 17.1 µM (active)
EC50 [24]: 4.73 µM (active)
EC50 [25]: > 60 µM (not active)
